Active and inactive are the calls of the source.
How the values were obtained:
[1] = target: T1, E3 ubiquitin-protein ligase XIAP (Homo sapiens, UniProt P98170); assay: Counter Screen using XIAP-Bir3 for Chemical Antagonists of Bir1/2 domains of IAP-family anti-apoptotic proteins. [Related pubchem assays (depositor defined):AID1018, AID1449, AID1514, AID1638, AID1749, AID1750, AID488957, AID488963]
[2] = target: T1, E3 ubiquitin-protein ligase XIAP; assay: XIAP antagonists, biochemical, IAP family, fluorescence polarization (AID 1018); type: functional
[3] = target: T2, Polyadenylate-binding protein 1 (Homo sapiens, UniProt P11940); assay: PABP1 MLLE–PAM2 binding inhibitor potency, dose response, biochemical, fluorescence polarization, FITC-PAM2 peptide (AID 602259); type: functional; conditions: read-out: IC50_Mean
[4] = target: T2, Polyadenylate-binding protein 1; assay: PABP1 MLLE–PAM2 interaction inhibitors, dose response, miRNA deadenylation inhibitor project, biochemical, fluorescence polarization, Cy5-PAM2 peptide, secondary (AID 602260); type: functional; conditions: read-out: IC50_Mean
[5] = target: Heat shock protein HSP 90-alpha (Homo sapiens, UniProt P07900); assay: Luminescence-based dose response biochemical high throughput screening assay for inhibitors of the Heat Shock Protein 90 (HSP90). [Related pubchem assays: 1831 (Summary AID.), 1846 (Confirmation screen.), 1789 (Primary screen.)]
[6] = target: Cytochrome P450 2C9 (Homo sapiens, UniProt P11712)
[7] = Luminescence Cell-Based Dose Response HTS to Identify Activators of Luciferase Translation or Activity in H4 […] Cells. [Related pubchem assays: 1829 (Project Summary), 1814 (Primary HTS)]; type: functional
[8] = Luminescence Cell-Based Dose Response to Identify Activators of Luciferase Translation or Activity in H4-C Neuroglioblastoma Cells. [Related pubchem assays: 1829 (Project Summary), 1814 (Primary HTS)]; type: functional
[9] = Luminescence Cell-Based Dose Confirmation to Identify Activators of 5'UTR Stem-Loop Driven Alpha-Synuclein mRNA Translation in H4 Neuroglioblastoma Cells. [Related pubchem assays: 1829 (Project Summary), 1814 (Primary HTS)]; type: functional
[10] = system: H4; assay: Luminescence Cell-Based Dose Response HTS to Identify Activators of 5'UTR Stem-Loop Driven Prion Protein mRNA Translation in H4 Neuroglioblastoma Cells. [Related pubchem assays: 1829 (Project Summary), 1814 (Primary HTS)]; type: functional; conditions: Homo sapiens
[11] = Luminescence Cell-Based Dose Response to Identify Activators of 5'UTR Stem-Loop Driven Prion Protein mRNA Translation in H4-C Neuroglioblastoma Cells. [Related pubchem assays: 1829 (Project Summary), 1814 (Primary HTS)]; type: functional
[12] = target: Peroxisome proliferator-activated receptor gamma/Nuclear receptor coactivator 2 (Homo sapiens, UniProt P37231); type: functional;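 also: agonist potency for raising coactivator recruitment to the receptor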
[13] = target: Peroxisome proliferator-activated receptor gamma/Nuclear receptor coactivator 1 (Homo sapiens, UniProt P37231); type: functional;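 also: agonist potency as compounds enhance coactivator SRC-1 recruitment to PPARgamma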
[14] = target: Peroxisome proliferator-activated receptor gamma/Nuclear receptor coactivator 3 (Homo sapiens, UniProt P37231); type: functional;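 also: agonist potency for raising coactivator recruitment to the receptor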
[15] = target: T3, Carboxy-terminal domain RNA polymerase II polypeptide A small phosphatase 1 (Homo sapiens, UniProt Q9GZU7); assay: inhibitors of CTDSP1, concentration-response testing, biochemical assay, absorbance-based, actives from ultra-high-throughput screening (AID 540297); type: functional
T3 sequence (Q9GZU7 whole entry): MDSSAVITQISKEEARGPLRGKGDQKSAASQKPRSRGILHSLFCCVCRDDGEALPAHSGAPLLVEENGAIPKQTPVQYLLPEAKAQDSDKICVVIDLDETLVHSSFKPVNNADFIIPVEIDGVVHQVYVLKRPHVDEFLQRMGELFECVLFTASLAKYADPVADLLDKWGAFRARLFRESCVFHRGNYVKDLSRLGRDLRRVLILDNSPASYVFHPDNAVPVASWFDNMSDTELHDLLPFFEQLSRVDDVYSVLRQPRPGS

[16] = target: Mitogen-activated protein kinase 10 (Homo sapiens, UniProt P53779); assay: Dose response biochemical screening assay for inhibitors of c-Jun N-Terminal Kinase 3 (JNK3). [Related pubchem assays: 746 ]
[17] = target: T4, Ubiquitin-conjugating enzyme E2 N (Homo sapiens, UniProt P61088); type: functional;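 also: Dose-response confirmation in a TR-FRET assay detecting UBC13-driven polyubiquitin chain formation, inhibition measured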
T4 sequence (P61088 whole entry): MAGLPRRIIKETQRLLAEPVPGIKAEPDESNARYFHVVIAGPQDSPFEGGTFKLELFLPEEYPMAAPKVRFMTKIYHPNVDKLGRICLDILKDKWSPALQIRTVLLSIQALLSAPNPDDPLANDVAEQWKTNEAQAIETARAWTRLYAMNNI

[18] = target: Aspartyl aminopeptidase (Plasmodium falciparum 3D7, UniProt Q8I2J3); assay: Counterscreen for inhibitors of M1 and M17 aminopeptidases: QFRET-based biochemical high throughput dose response assay for inhibitors of the Plasmodium falciparum M18 Aspartyl Aminopeptidase (PFM18AAP). [Related PubChem assays: 1619 (Screening assay (M17LAP inhibitors).), 1445 (Screening assay (M1AAP inhibitors).)]
[19] = target: T5, Aminopeptidase N (Plasmodium falciparum FcB1/Columbia, UniProt O96935); assay: P. falciparum M1AAP inhibitors, biochemical, fluorogenic H-Leu-NHMec substrate, 1536-well (AID 1445); parameters: species or system Plasmodium falciparum 3D7, 3D7
T5 sequence (O96935 whole entry): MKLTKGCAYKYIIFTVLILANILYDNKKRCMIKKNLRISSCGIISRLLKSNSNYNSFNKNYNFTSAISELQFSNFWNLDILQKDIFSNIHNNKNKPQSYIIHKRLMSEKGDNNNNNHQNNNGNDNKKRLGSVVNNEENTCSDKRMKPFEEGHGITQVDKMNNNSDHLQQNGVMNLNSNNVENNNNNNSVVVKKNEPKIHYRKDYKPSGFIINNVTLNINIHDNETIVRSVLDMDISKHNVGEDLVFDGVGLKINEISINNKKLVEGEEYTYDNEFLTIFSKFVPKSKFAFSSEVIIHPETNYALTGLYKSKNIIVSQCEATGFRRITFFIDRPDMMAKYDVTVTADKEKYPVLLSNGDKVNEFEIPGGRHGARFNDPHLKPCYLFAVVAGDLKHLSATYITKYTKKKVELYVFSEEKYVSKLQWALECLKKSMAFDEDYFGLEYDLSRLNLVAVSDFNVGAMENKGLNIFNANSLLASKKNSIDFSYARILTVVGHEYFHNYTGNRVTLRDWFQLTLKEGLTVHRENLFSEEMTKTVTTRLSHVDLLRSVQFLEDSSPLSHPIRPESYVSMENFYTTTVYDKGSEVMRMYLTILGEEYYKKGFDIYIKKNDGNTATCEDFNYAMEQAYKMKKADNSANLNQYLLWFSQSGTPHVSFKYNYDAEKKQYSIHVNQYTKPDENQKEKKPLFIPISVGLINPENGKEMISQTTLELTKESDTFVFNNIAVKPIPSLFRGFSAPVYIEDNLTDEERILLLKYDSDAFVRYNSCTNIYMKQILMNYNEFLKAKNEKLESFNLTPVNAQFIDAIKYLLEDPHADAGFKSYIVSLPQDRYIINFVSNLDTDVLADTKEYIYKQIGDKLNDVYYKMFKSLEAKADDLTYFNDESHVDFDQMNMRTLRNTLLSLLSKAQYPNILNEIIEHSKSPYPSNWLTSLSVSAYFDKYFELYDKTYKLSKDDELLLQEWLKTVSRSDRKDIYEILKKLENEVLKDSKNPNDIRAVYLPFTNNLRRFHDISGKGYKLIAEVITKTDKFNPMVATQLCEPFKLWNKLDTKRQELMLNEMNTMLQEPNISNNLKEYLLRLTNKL

[20] = target: Procathepsin L (Homo sapiens, UniProt P07711); assay: cathepsin L inhibitors, dose response, counter-screen for M1/M17 aminopeptidase inhibitor project, biochemical, QFRET, 1536-well (AID 2214)
[21] = target: T6, Estrogen receptor (Homo sapiens, UniProt P03372); assay: potentiators of ERα–SRC-1 coactivator binding, dose response, biochemical, TR-FRET, ERα LBD (AID 737)
T6 sequence (P03372 whole entry): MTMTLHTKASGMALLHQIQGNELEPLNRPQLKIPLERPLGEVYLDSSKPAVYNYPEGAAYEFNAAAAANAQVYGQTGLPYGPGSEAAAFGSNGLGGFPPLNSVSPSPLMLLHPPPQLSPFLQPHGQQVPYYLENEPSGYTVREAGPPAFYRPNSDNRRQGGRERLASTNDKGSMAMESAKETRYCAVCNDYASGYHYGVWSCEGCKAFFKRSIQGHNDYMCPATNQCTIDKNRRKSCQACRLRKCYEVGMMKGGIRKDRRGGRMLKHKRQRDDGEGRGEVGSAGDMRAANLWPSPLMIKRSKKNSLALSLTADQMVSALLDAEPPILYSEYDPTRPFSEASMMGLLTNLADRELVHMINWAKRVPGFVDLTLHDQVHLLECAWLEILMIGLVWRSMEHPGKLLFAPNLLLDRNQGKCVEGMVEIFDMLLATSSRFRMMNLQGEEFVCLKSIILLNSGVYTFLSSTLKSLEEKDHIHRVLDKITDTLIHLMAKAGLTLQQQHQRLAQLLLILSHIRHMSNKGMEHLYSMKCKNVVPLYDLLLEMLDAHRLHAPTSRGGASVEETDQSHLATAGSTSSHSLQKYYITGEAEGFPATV

Mitogen-activated protein kinase 10, sequence (P53779 whole entry): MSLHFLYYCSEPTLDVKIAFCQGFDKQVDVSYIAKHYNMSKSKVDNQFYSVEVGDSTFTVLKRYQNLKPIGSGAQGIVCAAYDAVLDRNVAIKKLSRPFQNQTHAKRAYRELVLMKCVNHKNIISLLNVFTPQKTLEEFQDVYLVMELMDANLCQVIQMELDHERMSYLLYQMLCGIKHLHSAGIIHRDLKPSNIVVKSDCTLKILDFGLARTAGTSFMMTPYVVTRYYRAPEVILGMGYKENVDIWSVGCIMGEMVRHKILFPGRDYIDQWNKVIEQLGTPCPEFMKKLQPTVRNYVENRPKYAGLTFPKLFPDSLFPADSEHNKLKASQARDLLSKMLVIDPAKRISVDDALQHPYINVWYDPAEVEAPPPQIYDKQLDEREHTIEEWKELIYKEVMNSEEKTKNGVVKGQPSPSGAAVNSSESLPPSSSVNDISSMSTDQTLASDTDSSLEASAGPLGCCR
T1 sequence (P98170 whole entry): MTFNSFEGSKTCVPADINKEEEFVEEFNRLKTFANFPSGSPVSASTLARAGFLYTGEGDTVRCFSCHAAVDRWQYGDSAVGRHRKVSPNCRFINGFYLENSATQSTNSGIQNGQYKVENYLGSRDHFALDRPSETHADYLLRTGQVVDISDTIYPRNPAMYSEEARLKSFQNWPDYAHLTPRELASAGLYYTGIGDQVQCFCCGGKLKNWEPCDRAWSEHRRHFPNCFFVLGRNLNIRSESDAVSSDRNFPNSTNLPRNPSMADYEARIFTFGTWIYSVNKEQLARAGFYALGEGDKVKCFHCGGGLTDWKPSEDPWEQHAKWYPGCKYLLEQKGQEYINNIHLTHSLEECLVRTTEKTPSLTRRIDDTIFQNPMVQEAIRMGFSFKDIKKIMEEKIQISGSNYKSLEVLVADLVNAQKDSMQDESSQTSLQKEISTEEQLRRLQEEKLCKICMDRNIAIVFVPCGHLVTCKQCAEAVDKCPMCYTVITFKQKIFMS
T2 sequence (P11940 whole entry): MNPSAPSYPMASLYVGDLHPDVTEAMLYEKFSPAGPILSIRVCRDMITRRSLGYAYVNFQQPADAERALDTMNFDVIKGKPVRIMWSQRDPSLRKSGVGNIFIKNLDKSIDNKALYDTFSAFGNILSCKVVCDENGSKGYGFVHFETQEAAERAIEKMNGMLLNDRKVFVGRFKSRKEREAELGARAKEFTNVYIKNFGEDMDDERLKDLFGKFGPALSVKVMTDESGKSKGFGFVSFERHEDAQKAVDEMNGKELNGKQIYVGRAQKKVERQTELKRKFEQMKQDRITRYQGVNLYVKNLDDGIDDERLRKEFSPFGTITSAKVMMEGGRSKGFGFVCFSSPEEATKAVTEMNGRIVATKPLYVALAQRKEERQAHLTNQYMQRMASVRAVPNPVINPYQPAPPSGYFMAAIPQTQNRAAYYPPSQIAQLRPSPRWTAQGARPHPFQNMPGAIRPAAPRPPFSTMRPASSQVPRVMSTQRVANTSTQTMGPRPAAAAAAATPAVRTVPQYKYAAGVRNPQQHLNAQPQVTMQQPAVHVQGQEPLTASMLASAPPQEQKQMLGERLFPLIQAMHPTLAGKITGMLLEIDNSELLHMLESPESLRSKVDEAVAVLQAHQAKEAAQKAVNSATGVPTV
Procathepsin L, sequence (P07711 whole entry, the tested form may be a part): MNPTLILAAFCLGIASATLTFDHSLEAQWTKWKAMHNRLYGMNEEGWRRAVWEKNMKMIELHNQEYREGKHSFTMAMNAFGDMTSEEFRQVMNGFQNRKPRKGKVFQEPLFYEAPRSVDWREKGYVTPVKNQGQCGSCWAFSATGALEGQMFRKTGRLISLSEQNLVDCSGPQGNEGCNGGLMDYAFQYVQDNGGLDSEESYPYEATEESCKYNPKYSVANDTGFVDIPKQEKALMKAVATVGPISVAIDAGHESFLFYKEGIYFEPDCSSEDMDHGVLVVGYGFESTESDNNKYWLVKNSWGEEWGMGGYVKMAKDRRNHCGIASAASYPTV
Aspartyl aminopeptidase, sequence (Q8I2J3 whole entry): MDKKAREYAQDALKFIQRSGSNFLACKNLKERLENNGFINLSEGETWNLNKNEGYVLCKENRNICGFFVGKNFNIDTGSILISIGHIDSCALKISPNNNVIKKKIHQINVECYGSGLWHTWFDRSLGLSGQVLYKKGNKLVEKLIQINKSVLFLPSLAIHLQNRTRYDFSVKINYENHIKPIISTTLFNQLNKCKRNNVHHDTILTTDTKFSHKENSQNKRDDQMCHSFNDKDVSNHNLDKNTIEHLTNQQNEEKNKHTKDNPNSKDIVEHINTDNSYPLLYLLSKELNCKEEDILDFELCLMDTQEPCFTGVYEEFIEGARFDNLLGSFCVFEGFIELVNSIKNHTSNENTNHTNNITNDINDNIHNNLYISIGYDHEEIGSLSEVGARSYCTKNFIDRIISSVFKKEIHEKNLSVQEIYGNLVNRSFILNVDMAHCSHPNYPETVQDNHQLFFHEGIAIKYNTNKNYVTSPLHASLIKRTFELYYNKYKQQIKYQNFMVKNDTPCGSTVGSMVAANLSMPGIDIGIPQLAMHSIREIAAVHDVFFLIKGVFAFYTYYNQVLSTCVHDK
Cytochrome P450 2C9, sequence (P11712 whole entry): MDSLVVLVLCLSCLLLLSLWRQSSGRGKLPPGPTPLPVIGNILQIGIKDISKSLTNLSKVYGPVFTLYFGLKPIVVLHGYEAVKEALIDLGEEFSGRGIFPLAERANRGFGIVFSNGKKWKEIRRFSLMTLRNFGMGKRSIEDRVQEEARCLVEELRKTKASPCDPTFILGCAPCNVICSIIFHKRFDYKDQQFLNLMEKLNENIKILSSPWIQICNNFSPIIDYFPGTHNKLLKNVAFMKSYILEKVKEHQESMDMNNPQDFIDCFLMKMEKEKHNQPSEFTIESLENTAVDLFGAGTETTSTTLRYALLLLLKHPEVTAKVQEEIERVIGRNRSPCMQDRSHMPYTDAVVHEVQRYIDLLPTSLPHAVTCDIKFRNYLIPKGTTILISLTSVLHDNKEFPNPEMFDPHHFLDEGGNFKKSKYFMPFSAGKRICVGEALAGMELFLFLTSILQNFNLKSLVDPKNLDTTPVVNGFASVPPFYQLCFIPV
Peroxisome proliferator-activated receptor gamma/Nuclear receptor coactivator 1, sequence (P37231 whole entry): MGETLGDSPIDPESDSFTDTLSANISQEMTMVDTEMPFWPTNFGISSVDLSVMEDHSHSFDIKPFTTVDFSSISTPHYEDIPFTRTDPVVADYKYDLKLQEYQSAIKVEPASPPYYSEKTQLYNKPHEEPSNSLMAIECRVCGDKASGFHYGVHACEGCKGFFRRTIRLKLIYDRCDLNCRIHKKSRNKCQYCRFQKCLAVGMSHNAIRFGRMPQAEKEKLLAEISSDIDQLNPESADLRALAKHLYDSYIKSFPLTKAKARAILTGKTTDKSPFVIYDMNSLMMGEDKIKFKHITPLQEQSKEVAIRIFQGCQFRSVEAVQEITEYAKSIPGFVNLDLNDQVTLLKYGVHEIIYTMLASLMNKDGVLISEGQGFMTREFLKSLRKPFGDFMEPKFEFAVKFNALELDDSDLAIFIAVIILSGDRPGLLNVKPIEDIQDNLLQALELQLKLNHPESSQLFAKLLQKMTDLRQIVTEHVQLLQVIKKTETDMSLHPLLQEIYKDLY
Peroxisome proliferator-activated receptor gamma/Nuclear receptor coactivator 1, sequence (Q15788 whole entry, further chain): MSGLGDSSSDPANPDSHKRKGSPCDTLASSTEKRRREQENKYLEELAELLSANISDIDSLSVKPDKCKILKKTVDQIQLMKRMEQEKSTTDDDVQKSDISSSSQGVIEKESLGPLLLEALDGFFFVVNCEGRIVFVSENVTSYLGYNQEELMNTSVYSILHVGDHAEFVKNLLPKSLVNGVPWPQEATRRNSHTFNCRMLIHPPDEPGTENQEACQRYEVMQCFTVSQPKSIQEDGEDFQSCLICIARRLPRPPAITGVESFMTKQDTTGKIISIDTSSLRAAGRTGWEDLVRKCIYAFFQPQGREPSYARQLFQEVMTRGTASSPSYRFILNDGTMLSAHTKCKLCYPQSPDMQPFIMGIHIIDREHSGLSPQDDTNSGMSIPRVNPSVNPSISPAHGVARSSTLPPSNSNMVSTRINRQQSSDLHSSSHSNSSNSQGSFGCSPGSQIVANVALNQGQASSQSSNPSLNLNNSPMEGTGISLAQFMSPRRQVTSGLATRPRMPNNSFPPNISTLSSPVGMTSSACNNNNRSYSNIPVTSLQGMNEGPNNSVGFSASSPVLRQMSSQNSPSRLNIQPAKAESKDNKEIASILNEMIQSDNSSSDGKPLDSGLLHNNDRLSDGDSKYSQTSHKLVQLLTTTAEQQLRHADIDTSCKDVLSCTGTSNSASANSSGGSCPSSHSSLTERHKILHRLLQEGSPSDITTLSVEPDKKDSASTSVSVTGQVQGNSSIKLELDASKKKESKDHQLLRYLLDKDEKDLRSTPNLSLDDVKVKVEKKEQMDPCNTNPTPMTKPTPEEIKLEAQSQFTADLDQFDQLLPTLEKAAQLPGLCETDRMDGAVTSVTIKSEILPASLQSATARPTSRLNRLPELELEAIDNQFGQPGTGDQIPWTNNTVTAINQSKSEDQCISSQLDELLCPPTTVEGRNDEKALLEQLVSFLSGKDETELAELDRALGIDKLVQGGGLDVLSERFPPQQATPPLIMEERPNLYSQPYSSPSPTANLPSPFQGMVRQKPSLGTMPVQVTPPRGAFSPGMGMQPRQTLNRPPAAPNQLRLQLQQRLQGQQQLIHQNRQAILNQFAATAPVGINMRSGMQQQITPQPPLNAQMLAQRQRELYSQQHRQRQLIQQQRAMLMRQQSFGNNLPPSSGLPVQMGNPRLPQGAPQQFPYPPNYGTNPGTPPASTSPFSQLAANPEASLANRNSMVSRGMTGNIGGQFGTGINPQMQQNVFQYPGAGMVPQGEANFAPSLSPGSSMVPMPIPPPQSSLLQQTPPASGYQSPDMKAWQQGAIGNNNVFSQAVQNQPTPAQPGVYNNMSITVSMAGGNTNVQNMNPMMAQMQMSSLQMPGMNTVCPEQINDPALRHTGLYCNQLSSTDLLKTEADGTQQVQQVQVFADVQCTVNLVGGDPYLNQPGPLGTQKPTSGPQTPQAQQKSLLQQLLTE

CC(=O)N1CCCc2cc(S(=O)(=O)N(CC(C)C)CC(C)C)ccc21
IC50 [1]: > 100 µM (inactive) | IC50 [2]: > 100 µM (not active)

CCN(CC)c1ccc(SS(=O)(=O)O)cc1
IC50 [3]: > 66 µM (inactive) | IC50 [4]: > 66 µM (inactive) | IC50 [5]: 4.53 µM (active) | AC50 [6]: 5.01 µM (inconclusive)

CC(C)(C)c1ccc(OC(=O)N2CCCCC2)cc1
EC50 [7]: < 0.1 µM (active) | EC50 [8]: 0.364 µM (active) | EC50 [9]: 1.13 µM (active) | EC50 [10]: 44.5 µM (active) | EC50 [11]: 1.01 µM (active)

O=C(COC(=O)c1sc2ccccc2c1Cl)Nc1ncc(Cl)cc1Cl
EC50 [12]: 18.8 µM (not active) | EC50 [13]: 21.6 µM (not active) | EC50 [14]: 25.5 µM (not active)

O=C(CCCCCn1c(SCc2ccncc2)nc2ccccc2c1=O)NCc1ccco1
IC50 [15]: 35.8 µM (active) | IC50 [16]: 73.1 µM (not active) | IC50 [17]: > 20 µM (inactive)

COC(=O)c1cccc(Cn2nnc3ccccc3c2=O)c1
IC50 [16]: 78.8 µM (not active)

O=C(O)CCC(=O)N1N=C(c2c(O)nc3ccc(Cl)cc3c2-c2ccccc2)CC1c1cccs1 (configuration not stated)
IC50 [18]: > 73.5 µM (not active) | IC50 [19]: 5.76 µM (active) | IC50 [20]: > 59.6 µM (not active)

NC(=O)c1oc2ccccc2c1NC(=O)c1nc2ccccc2s1
EC50 [21]: 13.4 µM (active)
